# Laboratory results reported in patent publication US9173898B2, “Methods of treating giardiasis” (THE UNITED STATES OF AMERICA, as represented by the …, priority 2010, dated 2015).
# Where a name gives a salt, the structure may show the parent alone. Read-outs that look alike come from different tables or passages of the source.
# Assays:
# Giardia WB = test: Giardia viability (ATP content) assay in 1536-well format; assay type: cell-based, Giardia lamblia; conditions: for Emax: 48 h, read-out: Giardia WB Efficacy; for Emax / Giardia WB Efficacy: percent reduction in ATP levels compared with 38.3 mM Mnz at maximal compound concentration; for IC50: concentration at which 50% of DMSO control ATP levels are detected, 48 hours, 1536-well
# Procedure: (§1) For the viability assay in 1536-well format, 2 μL media was dispensed per well into 1536-well white solid-bottom plates using a Multidrop Combi dispenser (Thermo Scientific). Subsequently, 23 nL/well compound solutions or DMSO controls were dispensed to the assay plates containing media via a pintool workstation (Kalypsys, San Diego). Trophozoites were chilled on ice to detach from glass tubes, and unless otherwise noted, were diluted to 250,000 trophozoites/mL with ice cold media. The trophozoite suspension was kept on ice and dispensed as 4 μL/well with the Multidrop Combi dispenser. Attachment of trophozoites to dispensing apparatus was avoided with continuous dispensing and icing of the trophozoite suspension. The plates were covered with plastic low-evaporation lids, individually sealed in Type A Bio-Bags and incubated at 37° C. for 48 hours. Following incubation, 4 μL/well of ATPLite reagent was dispensed with the Multidrop Combi dispenser. The assay plates were briefly centrifuged at 1000 RPM and luminescence signal was detected on a ViewLux plate reader (PerkinElmer) after 20 min incubation at room temperature. Signal-to-basal (S/B) ratio, Z′ factor and coefficient of variation (CV) were calculated from 32 wells with 0.38% DMSO (total signal) and 32 well with 38.3 μM Mnz (basal signal).
# Assay miniaturization in 1,536-well plate format was undertaken to increase throughput and facilitate screening of large compound libraries. The volume of trophozoites suspension was reduced to 6 μL/well and the ATP detection reagent was reduced to 4 μL/well in the 1536-well assay plates. […] The 100 trophozoites/well density was selected for further experiments to reduce the preparation work of Giardia cultures. Following these conditions, a DMSO test plate was used to assess the statistical parameters of the assay in the 1,536-well plate format.
# Using the above established conditions in 1536-well format, each compound of the invention was tested at 5 concentration points, ranging from 61 nM-38.3 μM in a 1:5 dilution ratio (Inglese, J., D. S. Auld, A. Jadhav, R. L. Johnson, A. Simeonov, A. Yasgar, W. Zheng, and C. P. Austin. 2006. Quantitative high-throughput screening: a titration-based approach that efficiently identifies biological activities in large chemical libraries. Proc Natl Acad Sci USA 103:11473-8).
# CHO cells [1] = test: CHO cell cytotoxicity assay in 1536-well format (ATP content counter-screen); assay type: cell-based, Chinese hamster; conditions: concentration at which 50% of DMSO control ATP levels are detected, 48 hours
# Procedure: For the viability assay in 1536-well format, 2 μL media was dispensed per well into 1536-well white solid-bottom plates using Multidrop Combi dispenser. Subsequently, 23 nL/well compound solutions or DMSO controls were dispensed to the assay plates via a pintool workstation. The Chinese hamster ovary (CHO) cells were grown in T225 flasks to 70% confluence under a standard cell culture condition (ATCC), detached with 0.25% Trypsin/EDTA, and seeded at 250 cells/well in 4 μL media (Dulbecco's Modified Eagle Medium, 10% fetal bovine serum, 1× penicillin/streptomycin). The plates were incubated at 37° C. with 5% CO2 and 95% humidity for 48 hours. Subsequently, ATP content was measured following the addition of 4 μL/well of ATPLite reagent and a 20 min incubation on a ViewLux plate reader.
# Data from the CHO cell counter-screen underwent the same initial analysis, with the exception that raw luminescence counts were normalized relative to DMSO only wells (0% activity) and 38.3 μM camptothecin treated wells (100% activity).
# CHO cells, commonly used in high throughput compound screening, were selected to determine the cytotoxicity of the compounds towards a mammalian cell line.
# CHO cells [2] = test: as above; assay type: cell-based, Chinese hamster; conditions: for Emax: Cricetulus griseus, CHO, 48 h, percent reduction in ATP levels compared with 38.3 µM camptothecin at maximal compound concentration, read-out: CHO Efficacy; for CHO Efficacy: percent reduction in ATP levels compared with 38.3 mM camptothecin at maximal compound concentration
# G. lamblia GS isolate = test: ATP content assay against G. lamblia GS isolate; assay type: cell-based, Giardia lamblia; conditions: Table 2, screen, read-out: Giardia GS IC50
# Procedure: as §1
# As a further confirmatory step, some compounds that were commercially available were purchased as powder samples and tested against the G. lamblia GS isolate using both the ATP content and enumeration assays (Table 3).
# [3] = test system: Giardia lamblia GS isolate; test: Minimum Lethal Concentration (MLC) determination; assay type: cell-based; conditions: 3 days with compound, then 3 days regrowth without compound, tube without any live organisms
# Procedure: Giardia lamblia GS isolate was used throughout the Minimal Lethal Concentration (MLC) experiments. Organisms were grown and maintained in TYI-S-33 medium supplemented with bile and antibiotics (Keister, 1983). Cidal activity was determined in 96-well culture plates (Corning Incorporated) followed by Giardia trophozoites regrowth in 8 ml tubes (Fisher Scientific). Dry compounds were dissolved in DMSO (Sigma) at stock concentration of 10 mM and then added to the growth media to ensure final DMSO concentration of no more than 0.5%. 100 μl of the compound solutions were placed in the wells by serial dilutions. 10 μl of Giardia trophozoites containing 10000 organisms were then added. Serial dilutions of metronidazole served as the positive control and the DMSO-containing medium served as the negative control. Plates were incubated under anaerobic conditions in sealed bags (Becton Dickinson and Company) at 37° C. for 3 days and surveyed visually under microscope to check survival, mobility and attachment of trophozoites. The plate was chilled on ice for 30 min and the entire contents of 4 wells in the growth/death transition were transferred into the 8 ml tubes containing growth media only (without the compound). After 3 days of incubation at 37° C., tubes were checked under microscope for any surviving trophozoites. MLC was attributed to the tube without any live organisms. See, e.g., Keister, D. B. 1983. Axenic culture of Giardia lamblia in TYI-S-33 medium supplemented with bile. Trans. Soc. Trop. Med. Hyg. 77:487-488.
Molecule,Emax (Giardia WB; Giardia) [%],IC50 (Giardia WB; Giardia) [nM],"IC50 (CHO cells [1]; Cricetulus griseus, CHO) [nM]",Emax (CHO cells [2]) [%],IC50 (G. lamblia GS isolate; Giardia duodenalis) [nM],"MBC ([3]; Giardia duodenalis, 72 h) [µM]",IC50 (Giardia WB) [nM],Giardia WB Efficacy (Giardia WB) [%],IC50 (CHO cells [1]) [nM],MBC [3] [µM],CHO Efficacy (CHO cells [2]) [%],IC50 (G. lamblia GS isolate) [nM]
N[C@H](C(=O)O)[C@@H]1CC(Cl)=NO1 [Acivicin],85.9,170,27400,52.5,,,,,,,,
CCCOc1ccc2nc(NC(=O)OC)sc2c1 [Tioxidazole],90.9,1460,> 100000,34.9,634,1.54,,,,,,
CC[C@]1(O)C[C@@H]2C[N@@](CCc3c([nH]c4ccccc34)[C@@](C(=O)OC)(c3cc4c(cc3OC)N(C)[C@H]3[C@@](O)(C(=O)OC)[C@H](OC(C)=O)[C@]5(CC)C=CCN6CC[C@]43[C@@H]65)C2)C1 [Vinblastine sulfate],90.1,1450,100,64.1,,,,,,,,
"c1ccc2c(c1)[I+]c1ccccc1-2 [Diphenylene- iodonium chloride, diphenyleneiodonium chloride]",96,259,2060,95.9,,,,,,,,
Amlexanox,,,,,,,2590,92.4,3260,>41.7,89.3,
"CC(C)C[C@H](NC(=O)[C@H](Cc1ccccc1)NC(=O)c1cnccn1)B(O)O [Bortezomib (S,S), Bortezomib]",94.4,110,20,48.2,,,,,,,,
"CN(C)C(=S)SSC(=S)N(C)C [Tetramethylthiur am disulfide, tetramethylthiuram disulfide]",97.6,5160,520,97.6,,,,,,,,
NC(=O)c1cc(N2CC2)c([N+](=O)[O-])cc1[N+](=O)[O-] [CB 1954],,,,,,,120,96.4,> 100000,,−16.9,
COc1cc2c(cc1O)CCN[C@]21CS[C@H]2c3c(OC(C)=O)c(C)c4c(c3[C@H](COC1=O)N1C2[C@H]2c3c(cc(C)c(OC)c3O)C[C@@H]([C@@H]1O)N2C)OCO4 (stereo partly drawn) [Ecteinascidin 743],95.9,6.51,50,97.6,,,,,,,,
COC(=O)Nc1nc2ccc(C(=O)c3cccs3)cc2[nH]1 [Nocodazole],86.7,183,370,54.4,,0.15,,,,,,
"Bortezomib [Bortezomib (S,R)]",,,,,,,70,92.8,10,,36.2,
O=[N+]([O-])c1ccc(OC2OC(CO)C(O)C(O)C2F)c([N+](=O)[O-])c1 (stereo not drawn) [Dinitroph-dfgp],44.2,43400,> 100000,-8,,,,,,,,
CC(=O)[C@]1(O)Cc2c(O)c3c(c(O)c2[C@@H](O[C@H]2C[C@H](N)[C@H](O)[C@H](C)O2)C1)C(=O)c1ccccc1C3=O [Idarubicin HCl],94.1,3260,200,88.7,,> 41.7,,,,,,
CC(=O)Nc1ncc([N+](=O)[O-])s1 [Nithiamide],94.6,580,> 100000,25.9,317,4.63,,,,,,
CCCC(=O)OCC(OC(=O)CCC)C(OC(=O)CCC)C(Cn1c2nc(=O)[nH]c(=O)c-2nc2cc(C)c(C)cc21)OC(=O)CCC (stereo not drawn) [Riboflavin Butyrate],95.7,1090,> 100000,20.3,1130,41.7,,,,,,
O=[N+]([O-])c1ccc(/C=N/O)o1 [Nifuroxime],,,,,,,460,97.1,41000,1.54,−50.3,1000
O=C1c2c(O)ccc(O)c2C(=O)c2c(NCCNCCO)ccc(NCCNCCO)c21 [Mitoxantrone],87.5,8190,5800,95.8,,> 41.7,,,,,,
C=CCNC1=C2C[C@@H](C)C[C@H](OC)[C@H](O)[C@@H](C)/C=C(\C)[C@H](OC(N)=O)[C@@H](OC)/C=C\C=C(/C)C(=O)NC(=CC1=O)C2=O [17-Allylamino geldanamycin],95.6,81.9,520,86.9,,13.9,,,,,,
COC(COC(N)=O)C1=C(N2CC2)C(=O)C(C)=C(N2CC2)C1=O (stereo not drawn) [Carboquone],97.4,183,580,98.4,,1.54,,,,,,
Oc1ccc(/C=C\c2cc(O)cc(O)c2)cc1 [Resveratrol],80.7,4940,39200,22.2,,> 208,,,,,,
CCCCc1ccc2[nH]c(NC(=O)OC)nc2c1 [Parbendazole],90.2,312,440,60.3,,,,,,,,
COC(=O)[C@H]1[C@H]2C[C@@H]3c4[nH]c5ccccc5c4CCN3C[C@H]2C[C@@H](OC(=O)c2cc(OC)c(OC)c(OC)c2)[C@@H]1OC [Deserpidine],94.5,1630,280,13,283,1.54,,,,,,
CCN(CC)C(=S)SSC(=S)N(CC)CC [Disulfiram],95,6500,200,53.6,,,,,,,,
Oc1cc(O)cc(/C=C/c2ccc(O)c(O)c2)c1 [Piceatannol],81.3,3260,> 100000,-16.6,3560,13.9,,,,,,
O=C(Nc1ncc([N+](=O)[O-])s1)c1cccs1 [Tenonitrozol],93.1,290,> 100000,21.5,,1.54,,,,,,
